In patent publication US11413278B2, “Compounds and methods for promoting stress resistance” (priority 2015, dated 2022):
“Also recorded” adds a separate entry of the source. Where two headings read alike, the source gives them in different places.

What was measured:
WI-38 cells [1] = assay: Propidium iodide (PI) cell-death imaging upon H2O2 stress; type: cell-based, human; details: for Assay 7: H2O2-resistant, at 10 uM, validated by propidium iodide (PI) cell-death imaging: w/H2O2, 3 hrs/4 hrs/5 hrs, YES/NO; for cytotoxicity at 10 µM: Homo sapiens, WI-38
[2] = test system: human dermal fibroblast (HDF) primary cells; assay: H2O2-resistance in primary human dermal fibroblasts; type: cell-based; details: for fold induction at 10 µM: Homo sapiens; for Assay 6: H2O2-resistant, at 10 uM, human dermal fibroblast (HDF) primary cells: YES/NO
[3] = Summary score for characterization of 38 core set hits; details: for D = Triple resistant: 2-point score, multiplex resistance (cadmium, MMS, H2O2); for C = H2O2- & Cd-resistant: score, resistance to both H2O2 and cadmium; for S = Sum of Negative scores: sum of columns Q and R
Procedure, shortened: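 Each score sums results of individual assays on H2O2-resistance screen hits. Nematode lifespan assays were run in 4 to 6 independent trials and scored up to 2. Key phenotypes such as multiplex resistance, FOXO3/NRF2 activation and mTOR down-regulation were weighted at 2 points, with a deduction for human-cell toxicity.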

WI-38 cells [4] = details: for No H2O2 stress treatment, at 10 uM (fold change): normalized ATP measurement; for Assay 1: H2O2-resistant: YES/NO, if NO, possibly due to repeated freezing/thawing of stocks
C. elegans = type: in vivo, Caenorhabditis elegans; details: for N = H2O2-resistance in woms: score; for L = H2O2-resistance in worms: summary score
Procedure, shortened: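 Survival under oxidative stress: 500 μM H2O2 (final) was added to day-4 adults kept in liquid with compounds, FUdR present, 4 wells per molecule and 0.2% DMSO controls, with daily scoring of viability.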

FOXO3 = assay: qPCR analysis of FOXO3-regulated genes; type: cell-based, human; details: for Induction of at least two of five FOXO3-regulated genes (SOD2, GADD45A, CAT, DDB1, TXNIP): WI-38; for fold induction at 10 µM: Homo sapiens; for K = Sestrin induction: score
Procedure, shortened: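 FOXO3 target-gene expression quantified by qPCR normalised to B2M, PPIA and GAPDH, in WI-38 cells after 24 h exposure to 10 μM compound. Some runs used cells first transfected 36 h with 10 nM FOXO3 or NRF2 siRNA and replated ~24 h before dosing.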

[5] = H2O2 3 hrs, 10 uM, n = 6, negative control 5.44% ± 0.79%, read-out: Percentage of propidium iodide-positive dead cells (under H2O2 stress treatment), 3 hrs
[6] = pre-treatment at 10 uM, 3.5 hours of H2O2, DMSO control 27.4% ± 6.5%, */**/*** = reduced by one/two/three standard deviations, read-out: Percentage of propidium iodide-positive dead cells (under H2O2 stress treatment), at 10 uM
[7] = Experiment 1, HDF cells, read-out: Experiment 1, HDF cells (under H2O2 stress treatment), at 10 uM (fold change)
[8] = Experiment 2, HDF cells, read-out: Experiment 2, HDF cells (under H2O2 stress treatment), at 10 uM (fold change)
[9] = WI-38 cells, 10 μM, (*) = compromised ability to protect cells from H2O2, could be due to stability issue
[10] = asterisks indicate the loss of the ability to protect cells from H2O2 over time
[11] = derived from dose response curves, 0.6-20 uM, H2O2-resistance of WI-38 cells
[12] = read-out: Est. ED50, dose response 0.6-20 μM, H2O2-resistance
[13] = 24 h, Assay 10(m), at 10 uM, qPCR, read-out: Induction of FOXO3-regulated genes: CAT normalized fold-change
[14] = 24 h, Assay 10(m), at 10 uM, qPCR, read-out: Induction of FOXO3-regulated genes: DDB1 normalized fold-change
[15] = 10 μM, 24 hrs, WI-38 cells, qPCR, normalized to B2M, n = 4, read-out: CAT expression, normalized fold change (FOXO3-regulated gene)
[16] = 10 μM, 24 hrs, WI-38 cells, qPCR, normalized to B2M, n = 4, read-out: DDB1 expression, normalized fold change (FOXO3-regulated gene)
[17] = WI-38 cells, 10 μM, 24 hrs, n=4, qPCR normalized by B2M, read-out: DDB1 Normalized fold change
[18] = WI-38 cells, 10 μM, 24 hrs, n=4, qPCR normalized by B2M, read-out: GADD45A Normalized fold change
[19] = WI-38 cells, 10 μM, 24 hrs, n=4, qPCR normalized by B2M, read-out: SESN1 Normalized fold change
[20] = fold change, qPCR, WI-38 cells, 10 μM, 24 hrs, read-out: Summary of effects on FOXO3-regulated genes: CAT
[21] = fold change, qPCR, WI-38 cells, 10 μM, 24 hrs, read-out: Summary of effects on FOXO3-regulated genes: DDB1
[22] = qPCR, WI-38 cells, 10 μM, n=4, 24 hrs, normalized by B2M, read-out: CAT Normalized fold change
[23] = qPCR, WI-38 cells, 10 μM, n=4, 24 hrs, normalized by B2M, read-out: SOD2 Normalized fold change
[24] = qPCR, WI-38 cells, 10 μM, n=4, 24 hrs, normalized by B2M, read-out: TXNIP Normalized fold change

## COc1ccc(C(=O)/C=C/c2cccc(Cl)c2)c(OC)c1 [Gr-4C]
WI-38 cells [1]; 10 uM
  Assay 7: H2O2-resistant, at 10 uM, validated by propidium iodide (PI) cell-death imaging: YES
WI-38 cells [1]; [5]
  cytotoxicity at 10 µM: 4.02%
WI-38 cells [1]; H2O2 4 hrs, 10 uM, n = 6, negative control 16.81% ± 1.42%, read-out: Percentage of propidium iodide-positive dead cells (under H2O2 stress treatment), 4 hrs
  cytotoxicity at 10 µM: 6.21%
WI-38 cells [1]; [6]
  cytotoxicity at 10 µM: 17.4%
[2]; [7]
  fold induction at 10 µM: 4.32
[2]; [8]
  fold induction at 10 µM: 3.15
[2]
  Assay 6: H2O2-resistant, at 10 uM, human dermal fibroblast (HDF) primary cells: YES
[3]
  D = Triple resistant: 0
  C = H2O2- & Cd-resistant: 0
  S = Sum of Negative scores: 0
WI-38 cells [4]; [9]
  H2O2-resistant: YES
WI-38 cells [4]; WI-38 cells
  No H2O2 stress treatment, at 10 uM (fold change): 1.08 fold change
WI-38 cells [4]
  Assay 1: H2O2-resistant: YES
WI-38 cells [4]; [10]
  H2O2-resistant: YES
WI-38 cells [4]; [11]
  EC50: 8.4 µM
WI-38 cells [4]; [12]
  EC50: 6.45 µM
C. elegans
  N = H2O2-resistance in woms: 0
  L = H2O2-resistance in worms: 0
FOXO3; 10 μM, 24 hrs
  Induction of at least two of five FOXO3-regulated genes (SOD2, GADD45A, CAT, DDB1, TXNIP): significant induction; also recorded: significant, induction
FOXO3; 2-point score
  E = Potential FOXO3 Activation: 0
FOXO3; [13]
  fold induction at 10 µM: 1.19
FOXO3; [14]
  fold induction at 10 µM: 1.51
FOXO3; 24 h, Assay 10(m), at 10 uM, qPCR, read-out: Induction of FOXO3-regulated genes: GADD45A normalized fold-change
  fold induction at 10 µM: 1.23
FOXO3; 24 h, Assay 10(m), at 10 uM, qPCR, read-out: Induction of FOXO3-regulated genes: SESN1 normalized fold-change
  fold induction at 10 µM: 1.42
FOXO3; 24 h, Assay 10(m), at 10 uM, qPCR, read-out: Induction of FOXO3-regulated genes: TXNIP normalized fold-change
  fold induction at 10 µM: 0.18
FOXO3; [15]
  fold induction at 10 µM: 1.19
FOXO3; [16]
  fold induction at 10 µM: 1.51
FOXO3; 10 μM, 24 hrs, WI-38 cells, qPCR, normalized to B2M, n = 4, read-out: GADD45A expression, normalized fold change (FOXO3-regulated gene)
  fold induction at 10 µM: 1.23
FOXO3; 10 μM, 24 hrs, WI-38 cells, qPCR, normalized to B2M, n = 4, read-out: SESN1 expression, normalized fold change (FOXO3-regulated gene)
  fold induction at 10 µM: 1.42
FOXO3; 10 μM, 24 hrs, WI-38 cells, qPCR, normalized to B2M, n = 4, read-out: TXNIP expression, normalized fold change (FOXO3-regulated gene)
  fold induction at 10 µM: 0.18
FOXO3; [17]
  fold induction at 10 µM: 1.51
FOXO3; [18]
  fold induction at 10 µM: 1.23
FOXO3; [19]
  fold induction at 10 µM: 1.42
FOXO3; [20]
  fold induction at 10 µM: 1.19
FOXO3; [21]
  fold induction at 10 µM: 1.51
FOXO3; fold change, qPCR, WI-38 cells, 10 μM, 24 hrs, read-out: Summary of effects on FOXO3-regulated genes: GADD45A
  fold induction at 10 µM: 1.23
FOXO3; fold change, qPCR, WI-38 cells, 10 μM, 24 hrs, read-out: Summary of effects on FOXO3-regulated genes: SESN1
  fold induction at 10 µM: 1.42
FOXO3; fold change, qPCR, WI-38 cells, 10 μM, 24 hrs, read-out: Summary of effects on FOXO3-regulated genes: TXNIP
  fold induction at 10 µM: 0.18
FOXO3; [22]
  fold induction at 10 µM: 1.19
FOXO3; [23]
  fold induction at 10 µM: 1.04
FOXO3; [24]
  fold induction at 10 µM: 0.179
FOXO3
  K = Sestrin induction: 0
FOXO3; summary score
  E = Potential FOXO3 Activation: 0

## COc1ccc(C(=O)/C=C/c2ccc(F)cc2)c(OC)c1 [Gr-4A]
WI-38 cells [1]; 10 uM
  Assay 7: H2O2-resistant, at 10 uM, validated by propidium iodide (PI) cell-death imaging: YES
WI-38 cells [1]; [5]
  cytotoxicity at 10 µM: 1.87%
WI-38 cells [1]; [6]
  cytotoxicity at 10 µM: 1.9%
[2]; [7]
  fold induction at 10 µM: 7.16
[2]; [8]
  fold induction at 10 µM: 2.35
[2]
  Assay 6: H2O2-resistant, at 10 uM, human dermal fibroblast (HDF) primary cells: YES
[3]
  D = Triple resistant: 0
  C = H2O2- & Cd-resistant: 1
  S = Sum of Negative scores: 0
WI-38 cells [4]; [9]
  H2O2-resistant: YES
WI-38 cells [4]; WI-38 cells
  No H2O2 stress treatment, at 10 uM (fold change): 1.08 fold change
WI-38 cells [4]
  Assay 1: H2O2-resistant: YES
WI-38 cells [4]; [10]
  H2O2-resistant: YES
WI-38 cells [4]; [11]
  EC50: 9.1 µM
WI-38 cells [4]; [12]
  EC50: 4.97 µM
C. elegans
  N = H2O2-resistance in woms: 0
  L = H2O2-resistance in worms: 0
FOXO3; 10 μM, 24 hrs
  Induction of at least two of five FOXO3-regulated genes (SOD2, GADD45A, CAT, DDB1, TXNIP): significant induction; also recorded: significant, induction
FOXO3; 2-point score
  E = Potential FOXO3 Activation: 0
FOXO3; [13]
  fold induction at 10 µM: 1.26
FOXO3; [14]
  fold induction at 10 µM: 1.2
FOXO3; [15]
  fold induction at 10 µM: 1.26
FOXO3; [16]
  fold induction at 10 µM: 1.2
FOXO3; [17]
  fold induction at 10 µM: 1.2
FOXO3; [18]
  fold induction at 10 µM: 0.981
FOXO3; [19]
  fold induction at 10 µM: 1.12
FOXO3; [20]
  fold induction at 10 µM: 1.26
FOXO3; [21]
  fold induction at 10 µM: 1.2
FOXO3; [22]
  fold induction at 10 µM: 1.26
FOXO3; [23]
  fold induction at 10 µM: 0.98
FOXO3; [24]
  fold induction at 10 µM: 0.819
FOXO3
  K = Sestrin induction: 0
FOXO3; summary score
  E = Potential FOXO3 Activation: 0
